Source: patent US10993433B2, “Method of producing in vitro testicular constructs and uses thereof” (Wake Forest University Health Sciences, priority 2015, dated 2021)
Read-outs that look alike come from different tables or passages of the source.

Key:
[1] = system: 2D cultured cells (SSC, Sertoli, Leydig at the same cell ratios and density of 3D organoids); assay: Drug toxicity test, CellTiter-Glo ATP viability, 2D cultured testicular cells; format: cell-based, human; conditions: 2D culture, 48 hours exposure, ATP content (CellTiter-Glo)
Experimental: (§1) For toxicity testing, cisplatin and etoposide were purchased from Santa Cruz Biotechnology (Dallas, Tex.) and stock solutions of 5 mM and 25 mM were made in 0.9% NaCl and DMSO, respectively. Doxorubicin was purchased from Sigma-Aldrich, (St. Louis, Mo.) and a stock solution was produced in diH2O at a concentration of 10 mM. Busulfan (24 mM) was purchased from Otsuka Pharmaceutical (Tokyo, Japan) and was diluted into medium immediately prior to use. The undifferentiated (just after formation, 2 days in culture) and differentiated (23 days in culture) organoids, as well as 2D cultured cells (at the same cell ratios and density of 3D organoids), were treated for 48 hours in 6 different concentrations of each drug (0.01, 0.1, 1, 10, 100 and 1000 μM) in vitro. After 48 hours, CellTiter-Glo® Luminescent Cell Viability assays were performed (Promega) on all conditions. Briefly, culture plates were removed from the incubator and equilibrated to room temperature for 30 minutes. To each well of the 96-well culture plate, 100 μl of CellTiter-Glo® reagent was added at a 1:1 ratio and plates were moved to an orbital shaker for 5 minutes to induce cell lysis. Plates were incubated at room temperature for 10 minutes to stabilize luminescent signal and read on a Veritas™ luminometer. Integration times of 1 second were used for all samples. All conditions were performed in triplicate and medium only control wells were read and subsequently used for background subtraction. IC50 values were determined using GraphPad Prism® 6 calculated via 4-parameter fit with a 95% confidence interval. All experimental conditions were repeated at least three times.
(§2) The use of human testicular organoids as a novel screening tool for reproductive toxicity was assess by exposing 3D organoids to four clinically relevant antimitotic chemotherapeutic drugs: busulfan, cisplatin, doxorubicin, and etoposide. To obtain IC50 values, undifferentiated (2 days in culture) and differentiated (23 days in culture) organoids were exposed to increasing concentrations of drugs for 48 hours. H&E staining as well as Live/Dead viability assays were performed on organoids following drug treatment (FIG. 7A and Figure B, respectively). Drug-treated organoids were harvested and further evaluated for toxicity by measuring ATP production (CellTiter-Glo®; Promega, Madison, Wis.). Resulting viability was then used to establish IC50 values for organoid cultures (FIG. 7C).

[2] = system: 3D human testicular organoids; assay: Drug toxicity test, CellTiter-Glo ATP viability, 3D testicular organoids; format: cell-based; conditions: 48 hours exposure, ATP content
Experimental: Isolated human SSC, immortalized Sertoli cells, and immortalized Leydig cells at passage 5-6 were propagated in normal 6-well tissue culture plates to 80-90% confluency and passaged using trypsin EDTA (0.25%). Counted cells were pelleted and resuspended in a testicular organoid formation medium composed of normal StemPro®-34 (Invitrogen) SSC proliferation medium supplemented with 30% FBS, 1 μg/mL solubilized human testis extracellular matrix extract and 50 μg/mL Gentamycin. All three cell suspensions were combined together at a ratio of 8:1:1 and seeded into Perfecta3D® 96-well hanging drop plates (3D Biomatrix, Ann Arbor, Mich.) or GravityPLUS™ 96-well hanging drop plates (InSphero, Schlieren, Switzerland) at a density of 10,000 cells/40 μl drop volume. Following 48-72 hours of hanging drop culture, all testicular cell subtypes had amalgamated into compact organoids and were transferred into 96-well format Corning® Costar® Ultra-low Attachment Multiwell U-bottom plates for long term culture (Sigma-Aldrich, St. Louis, Mo.). For long-term study, all testicular organoids were cultured inn normal StemPro®-34 SSC proliferation medium without human leukemia inhibitory factor (LIF) and supplemented with 1 μg/mL solubilized human testis extracellular matrix extract, 2 μM retinoic acid (Sigma-Aldrich), 2.5×10^−5 IU follicle-stimulating hormone (Sigma-Aldrich), 100 ng/mL recombinant human stem cell factor (SCF; PeproTech, Rocky Hill, N.J.), and 50 μg/mL Gentamycin. Culture medium was refreshed every 4 days. All testicular organoids were cultured at 34° C. and 5% CO2.
as §1
as §2, with “Resulting viability was then used to establish IC50 values for organoid cultures (FIG. 7C).” left out

[3] = Homo sapiens, differentiated organoids (23 days in culture), read-out: 3D IC50 Differentiated Organoids
[4] = Homo sapiens, undifferentiated organoids (2 days in culture), read-out: 3D IC50 Undifferentiated Organoids

SMILES	IC50 ([1]; Homo sapiens, Leydig)	IC50 [2, 3]	IC50 [2, 4]	IC50 [1]	IC50 ([2]; differentiated organoids (23 days in culture), read-out: 3D IC50 Differentiated Organoids)	IC50 ([2]; undifferentiated organoids (2 days in culture), read-out: 3D IC50 Undifferentiated Organoids)
COc1cc([C@@H]2c3cc4c(cc3[C@@H](O[C@@H]3O[C@@H]5CO[C@@H](C)O[C@H]5[C@H](O)[C@H]3O)[C@H]3COC(=O)[C@H]23)OCO4)cc(OC)c1O [Etoposide]	43.5 µM	839 µM	449 µM	–	–	–
CS(=O)(=O)OCCCCOS(C)(=O)=O [Busulfan]	328 µM	906 µM	830 µM	–	–	–
COc1cccc2c1C(=O)c1c(O)c3c(c(O)c1C2=O)C[C@@](O)(C(=O)CO)C[C@@H]3O[C@H]1C[C@H](N)[C@H](O)[C@H](C)O1 [Doxorubicin]	0.19 µM	2.76 µM	1.33 µM	–	–	–
N.N.[Cl][Pt][Cl] [Cisplatin]	–	–	–	23.8 µM	158 µM	38.4 µM
